Tests used:
Format in all cases: cell-based, human
normal skin fibroblasts [1] = assay: [3H]-valine incorporation into insoluble elastin, normal skin fibroblasts; details: for mature, insoluble elastin concentration ([3H]-valine incorporation): 50 ng/ml IGF-I, 50 nM aldosterone, alone or in combination
Protocol: (§1) Biological effects of aldosterone and spironolactone were tested in cultures of dermal fibroblasts derived from normal skin, stretch-marked skin and dermal scars derived from Caucasian females, of different ages ranging from 30-38 years old. All fibroblasts were originally isolated by allowing them to migrate out of skin explants and then passaged by trypsinization and maintained in alpha-minimum essential medium supplemented with 20 mM Hepes, 1% antibiotics and antimycotics, 1% L-Glutamate and 2% fetal bovine serum (FBS) as previously described Hinek et al. “Impaired elastic-fiber assembly by fibroblasts from patients with either Morquio B disease or infantile GM1-gangliosidosis is linked to deficiency in the 67-kD spliced variant of beta-galactosidase.” Am J Hum Genet. 2000 July; 67(1):23-36 hereby incorporated by reference in its entirety. In all experiments, consecutive passages 3-4 were tested. Cells were densely plated (50×10^5 cells/dish) to reach confluency and then cultured for 7 days in the presence and absence of different concentrations of (10 nM-1 μM) aldosterone, 2 μM spironolactone, alone or in combinations with other reagents, as described in figure legends.
Quintuplicate, 4 day-old cultures of dermal fibroblasts maintained in the presence and absence of indicated reagents were additionally exposed for the 3 following days to 20 μCi [^3H]-valine. At the end of incubation period, the cell layers were extensively washed with PBS, scraped and boiled in 500 μl of 0.1 N NaOH for 30 minutes, to solubilize all matrix components except elastin. The resulting pellets containing the insoluble elastin were then solubilized by boiling in 200 μl of 5.7 N HCl for 1 hour, and the aliquots were mixed in scintillation fluid and counted. Aliquots taken from each culture were also used for DNA determination, according to Rodems et al., using the DNeasy Tissue System from Qiagen. Final results reflecting amounts of metabolically labeled insoluble elastin in individual cultures were normalized per their DNA content, and expressed as CPM/1 μg DNA.

[2] = test system: skin biopsy explants derived from abdominal dermal scar; assay: Organ culture of dermal scar explants, Movat's pentachrome stain
Protocol: In order to further test whether aldosterone and spironolactone would penetrate into skin tissue and affect elastogenesis, fragments of normal skin, stretch-marked skin and dermal scars were tested in organ culture system. Skin fragments were cut into multiple 1 mm^2 pieces and placed on top of metal grids immersed in culture medium containing 5% FBS and maintained for 10 days in the presence and absence of and then cultured for 7 days in the presence of 50 nM aldosterone, and 2 μM spironolactone, alone or in combinations, as described in figure legends. The media were changed every second day.
All organ cultures were fixed in 1% buffered formalin and their transversal serial histological sections were stained with Movat's pentachrome as previously described in Hinek et al. “Proteolytic digest derived from bovine Ligamentum Nuchae stimulates deposition of new elastin-enriched matrix in cultures and transplants of human dermal fibroblasts” J Dermatol Sci. September 2005; 39(3):155-66 hereby incorporated by reference in it's entirety. Morphometric analysis was performed as described above. In each analyzed group (three explants from each patient) low-power fields (1 mm^2) of 20 serial sections stained with Movat's pentachrome were analyzed and all structures stained black (elastic fibers) were counted.

normal skin fibroblasts [3] = assay: Elastin immunostaining in 7-day cultures of normal skin fibroblasts; details: for deposition of elastin (anti-elastin immunostaining): 50 ng/ml IGF-I, 50 nM aldosterone, alone or together, vs untreated control
Protocol: as §1
7-day-old cultures of fibroblasts, which produce abundant ECM, were assessed. All cultures were fixed in cold 100% methanol at −20° C. for 30 min, and then incubated for 1 hour with 2 μg/ml of polyclonal antibody to tropoelastin. Cultures were then incubated for an additional hour with appropriate fluorescein-conjugated secondary antibody (GAR-FITC). Nuclei were counterstained with propidium iodide. Morphometric analysis of five separate cultures in each experimental group, immunostained with antibodies recognizing extracellular matrix components, was performed using a computerized video analysis system (Image-Pro Plus software 3.0, Media Cybernetics, Silver Spring, Md.) as described previously in Hinek et al. “Decreased elastin deposition and high proliferation of fibroblasts from Costello syndrome are related to functional deficiency in the 67-kD elastin-binding protein.” Am J Hum Genet. 2000 March; 66(3):859-72 and Hinek and Wilson, “Impaired elastogenesis in Hurler disease: dermatan sulfate accumulation linked to deficiency in elastin-binding protein and elastic fiber assembly.” Am J Pathol. 2000 March; 156(3):925-38 both of which are hereby incorporated by reference in their entireties.

[4] = test system: skin biopsy explants from abdominal stretch marks; assay: Organ culture of stretch-marked skin explants, Movat's pentachrome stain; details: 10 days, 50 nM aldosterone alone or with 2 μM spironolactone
Protocol: (§2) In order to further test whether aldosterone and spironolactone would penetrate into skin tissue and affect elastogenesis, fragments of normal skin, stretch-marked skin and dermal scars were tested in organ culture system. Skin fragments were cut into multiple 1 mm^2 pieces and placed on top of metal grids immersed in culture medium containing 5% FBS and maintained for 10 days in the presence and absence of and then cultured for 7 days in the presence of 50 nM aldosterone, and 2 μM spironolactone, alone or in combinations, as described in figure legends. The media were changed every second day. All organ cultures were fixed in 1% buffered formalin and their transversal serial histological sections were stained with Movat's pentachrome as previously described in Hinek et al. “Proteolytic digest derived from bovine Ligamentum Nuchae stimulates deposition of new elastin-enriched matrix in cultures and transplants of human dermal fibroblasts” J Dermatol Sci. September 2005; 39(3):155-66 hereby incorporated by reference in it's entirety. Morphometric analysis was performed as described above. In each analyzed group (three explants from each patient) low-power fields (1 mm^2) of 20 serial sections stained with Movat's pentachrome were analyzed and all structures stained black (elastic fibers) were counted.

[5] = test system: fibroblasts derived from dermal scar tissue; assay: [3H]-valine incorporation into insoluble elastin, dermal scar fibroblasts
Protocol: Biological effects of aldosterone and spironolactone were tested in cultures of dermal fibroblasts derived from normal skin, stretch-marked skin and dermal scars derived from Caucasian females, of different ages ranging from 30-38 years old. All fibroblasts were originally isolated by allowing them to migrate out of skin explants and then passaged by trypsinization and maintained in alpha-minimum essential medium supplemented with 20 mM Hepes, 1% antibiotics and antimycotics, 1% L-Glutamate and 2% fetal bovine serum (FBS) as previously described Hinek et al. “Impaired elastic-fiber assembly by fibroblasts from patients with either Morquio B disease or infantile GM1-gangliosidosis is linked to deficiency in the 67-kD spliced variant of beta-galactosidase.” Am J Hum Genet. 2000 July; 67(1):23-36 hereby incorporated by reference in its entirety. […]
Quintuplicate, 4 day-old cultures of dermal fibroblasts maintained in the presence and absence of indicated reagents were additionally exposed for the 3 following days to 20 μCi [^3H]-valine. […] The resulting pellets containing the insoluble elastin were then solubilized by boiling in 200 μl of 5.7 N HCl for 1 hour, and the aliquots were mixed in scintillation fluid and counted. […] Final results reflecting amounts of metabolically labeled insoluble elastin in individual cultures were normalized per their DNA content, and expressed as CPM/1 μg DNA.

[6] = test system: skin biopsy explants derived from normal abdominal skin; assay: Organ culture of normal skin explants, Movat's pentachrome stain; details: 10 days, 50 nM aldosterone alone or with 2 μM spironolactone
Protocol: as §2

[7] = test system: fibroblasts derived from patient with stretch marks; assay: [3H]-valine incorporation into insoluble elastin, stretch-mark fibroblasts; details: 50 nM aldosterone alone or with 2 μM spironolactone
Protocol: Biological effects of aldosterone and spironolactone were tested in cultures of dermal fibroblasts derived from normal skin, stretch-marked skin and dermal scars derived from Caucasian females, of different ages ranging from 30-38 years old. All fibroblasts were originally isolated by allowing them to migrate out of skin explants and then passaged by trypsinization and maintained in alpha-minimum essential medium supplemented with 20 mM Hepes, 1% antibiotics and antimycotics, 1% L-Glutamate and 2% fetal bovine serum (FBS) as previously described Hinek et al. “Impaired elastic-fiber assembly by fibroblasts from patients with either Morquio B disease or infantile GM1-gangliosidosis is linked to deficiency in the 67-kD spliced variant of beta-galactosidase.” Am J Hum Genet. […] In all experiments, consecutive passages 3-4 were tested. […] The resulting pellets containing the insoluble elastin were then solubilized by boiling in 200 μl of 5.7 N HCl for 1 hour, and the aliquots were mixed in scintillation fluid and counted. […] Final results reflecting amounts of metabolically labeled insoluble elastin in individual cultures were normalized per their DNA content, and expressed as CPM/1 μg DNA.

[8] = test system: fibroblasts derived from patient with stretch marks; assay: Elastin immunostaining in 7-day cultures of fibroblasts from a patient with stretch marks; details: 50 nM aldosterone alone or with 2 μM spironolactone; vs untreated control or spironolactone only
Protocol: Biological effects of aldosterone and spironolactone were tested in cultures of dermal fibroblasts derived from normal skin, stretch-marked skin and dermal scars derived from Caucasian females, of different ages ranging from 30-38 years old. All fibroblasts were originally isolated by allowing them to migrate out of skin explants and then passaged by trypsinization and maintained in alpha-minimum essential medium supplemented with 20 mM Hepes, 1% antibiotics and antimycotics, 1% L-Glutamate and 2% fetal bovine serum (FBS) as previously described Hinek et al. “Impaired elastic-fiber assembly by fibroblasts from patients with either Morquio B disease or infantile GM1-gangliosidosis is linked to deficiency in the 67-kD spliced variant of beta-galactosidase.” Am J Hum Genet. 2000 July; 67(1):23-36 hereby incorporated by reference in its entirety. In all experiments, consecutive passages 3-4 were tested. Cells were densely plated (50×10^5 cells/dish) to reach confluency and then cultured for 7 days in the presence and absence of different concentrations of (10 nM-1 μM) aldosterone, 2 μM spironolactone, alone or in combinations with other reagents, as described in figure legends. 7-day-old cultures of fibroblasts, which produce abundant ECM, were assessed. […]

elastin mRNA = assay: Elastin mRNA level by one-step RT-PCR in normal skin fibroblasts; details: 24 h; 50 nM and 1 μM aldosterone, alone or with 2 μM spironolactone
Protocol: (§3) Fibroblasts were cultured to confluency in medium with 2% FBS and then in serum-free medium for 24 hours. The medium was changed again and cells were incubated for the next 24 hours in the presence and absence of in the presence of 50 nM and 1 μM aldosterone, and 2 μM spironolactone, alone or in combinations, as described in figure legend. At the end of the incubation period total RNA was extracted using the RNeasy Mini Kit, according to manufacturer's instructions. Steady-state levels of elastin mRNA were then analyzed by One-Step RT-PCR analysis. Briefly, 1 μg of total RNA was added to each one step RT-PCR (Qiagen One-Step RT-PCR Kit), and reactions were set up according to manufacturer's instructions in a total volume of 25 μl. The reverse transcription step was performed for elastin, and GAPDH reactions at 50° C. for 30 minutes, followed by 15 minutes at 95° C. The elastin PCR reaction (sense primer: [NT] ID NO: 1), antisense primer: [NT] ID NO: 2); designed to produce a 255 bp product) was performed under the following conditions: 25 cycles at 94° C. denaturation for 20 s, 63° C. annealing for 20 s, 72° C. extension for 1 min; 1 cycle at 72° C. final extension for 10 min. The collagen Type I PCR reaction (sense [NT] ID NO: 3), antisense primer: [NT] […]

[9] = test system: fibroblasts derived from dermal scar tissue; assay: Elastin immunostaining in 7-day cultures of dermal scar fibroblasts
Protocol: as §1
7-day-old cultures of fibroblasts, which produce abundant ECM, were assessed. All cultures were fixed in cold 100% methanol at −20° C. for 30 min, and then incubated for 1 hour with 2 μg/ml of polyclonal antibody to tropoelastin. Cultures were then incubated for an additional hour with appropriate fluorescein-conjugated secondary antibody (GAR-FITC). Nuclei were counterstained with propidium iodide. Morphometric analysis of five separate cultures in each experimental group, immunostained with antibodies recognizing extracellular matrix components, was performed using a computerized video analysis system (Image-Pro Plus software 3.0, Media Cybernetics, Silver Spring, Md.) as described previously in Hinek et al. “Decreased elastin deposition and high proliferation of fibroblasts from Costello syndrome are related to functional deficiency in the 67-kD elastin-binding protein.” Am J Hum Genet. […]

collagen type I mRNA = assay: Collagen type I mRNA level by one-step RT-PCR in normal skin fibroblasts; details: 24 h; 50 nM and 1 μM aldosterone, alone or with 2 μM spironolactone
Protocol: as §3

[10] = FIG. 11, 50 nM aldosterone alone or with 2 μM spironolactone, vs untreated control

CC(C)(C)c1cc(C=C(C#N)C#N)cc(Br)c1O [AG1024]
mature elastin concentration in the presence of IGF-I or aldosterone ([3H]-valine incorporation) (normal skin fibroblasts [1]; 1 μg/ml αIGF-IR or 5 μM AG1024 with 50 ng/ml IGF-I or 50 nM aldosterone): maintained at or below control levels
elastin deposition in AG1024-treated explants (Movat's pentachrome) ([2]; 5 μM AG1024 alone, with 50 nM aldosterone, or with aldosterone and 2 μM spironolactone): no net increase in elastin deposition
effect on aldosterone-enhanced deposition of elastin (immunostaining) (normal skin fibroblasts [3]; 50 nM aldosterone with 1 μg/ml αIGF-IR or 5 μM AG1024): inhibited
effect on IGF-I-enhanced deposition of elastin (immunostaining) (normal skin fibroblasts [3]; 50 ng/ml IGF-I with 1 μg/ml αIGF-IR or 5 μM AG1024): inhibited

C[C@]12CCC(=O)C=C1CC[C@@H]1[C@@H]2[C@@H](O)C[C@]2(C=O)[C@@H](C(=O)CO)CC[C@@H]12 [aldosterone]
elastic fibers / deposition of elastin (Movat's pentachrome) [4]: thicker and longer elastic fibers
mature, insoluble elastin concentration ([3H]-valine incorporation) (normal skin fibroblasts [1]): improved mature elastin concentrations over untreated control
deposition of insoluble mature elastin ([3H]-valine incorporation) ([5]; 50 nM aldosterone alone or with 2 μM spironolactone): enhanced
elastic fibers / deposition of elastin (Movat's pentachrome) [6]: thicker and longer elastic fibers
concentration of mature, insoluble elastin ([3H]-valine incorporation) [7]: increased
deposition of collagen (yellow, Movat's pentachrome) [2, 10]: increases in deposition
deposition of elastin (black, Movat's pentachrome) [2, 10]: increases in deposition
elastic fibers (Movat's pentachrome) ([2]; superficial and deep portion of scar, 10 days, 50 nM aldosterone alone or with 2 μM spironolactone): numerous elastic fibers
elastin stained by anti-elastin antibodies [8]: increase in elastin
elastin mRNA (relative to GAPDH mRNA) (elastin mRNA): increases in an aldosterone concentration dependent manner
elastin stained by anti-elastin antibodies ([9]; 50 nM aldosterone alone or with 2 μM spironolactone, vs untreated control or spironolactone only): increase in elastin
collagen type I mRNA (relative to GAPDH mRNA) (collagen type I mRNA): net increase of collagen type I mRNA
concentration of elastin (anti-elastin immunostaining) (normal skin fibroblasts [3]; 7-day cultures, 10 nM, 50 nM, 1 μM aldosterone vs untreated): increased in an aldosterone concentration specific manner
deposition of elastin (anti-elastin immunostaining) (normal skin fibroblasts [3]; 7-day cultures): enhanced deposition of elastin

CC(=O)S[C@@H]1CC2=CC(=O)CC[C@]2(C)[C@H]2CC[C@@]3(C)[C@@H](CC[C@@]34CCC(=O)O4)[C@H]12 [spironolactone]
elastin deposition in cells treated with increasing concentrations of aldosterone (normal skin fibroblasts [3]; 2 μM spironolactone added to 10 nM, 50 nM, 1 μM aldosterone, 7-day cultures): did not alter elastin deposition

IGF-I: ligand of insulin growth factor receptor I, added at 10-100 ng/ml
mature, insoluble elastin concentration ([3H]-valine incorporation) (normal skin fibroblasts [1]): improved mature elastin concentrations over untreated control
deposition of mature, insoluble elastin ([3H]-valine incorporation) ([5]; 10 and 100 ng/ml IGF-I vs untreated control): dose dependent increase
elastin deposition (anti-elastin immunostaining) ([9]; 10 ng/ml IGF-I vs untreated control): increase in elastin depositions
elastin deposition (anti-elastin immunostaining) ([9]; 100 ng/ml IGF-I vs untreated control): even greater elastin deposition
deposition of elastin (anti-elastin immunostaining) (normal skin fibroblasts [3]; 7-day cultures): enhances the deposition of elastin
